Measurements as given in patent US20240109865A1, “INDAZOLE COMPOUNDS AS KINASE INHIBITORS” (TYRA BIOSCIENCES, INC., priority 2020, published 2024).

Legend:
[1] = target: FGFR3-BAIAP2L1 Ba/F3 cells (Homo sapiens, UniProt P22607); assay: Ba/F3 cell viability assay (CellTiter-Glo 2.0), FGFR3-BAIAP2L1 Ba/F3; assay type: cell-based; settings: for Ba/F3 FGFR1/FGFR3 Selectivity: FGFR3 > FGFR1 selectivity ratio in Ba/F3 FGFR fusion cell based assays; for IC50: read-out: Ba/F3 Cells FGFR3 (IC50 nM), FGFR3-BAIAP2L1 Ba/F3 cells, 48 hours, Cell Titer Glo 2.0
Chain of FGFR3-BAIAP2L1 Ba/F3 cells (P22607 23-806 limits assumed, change not shown): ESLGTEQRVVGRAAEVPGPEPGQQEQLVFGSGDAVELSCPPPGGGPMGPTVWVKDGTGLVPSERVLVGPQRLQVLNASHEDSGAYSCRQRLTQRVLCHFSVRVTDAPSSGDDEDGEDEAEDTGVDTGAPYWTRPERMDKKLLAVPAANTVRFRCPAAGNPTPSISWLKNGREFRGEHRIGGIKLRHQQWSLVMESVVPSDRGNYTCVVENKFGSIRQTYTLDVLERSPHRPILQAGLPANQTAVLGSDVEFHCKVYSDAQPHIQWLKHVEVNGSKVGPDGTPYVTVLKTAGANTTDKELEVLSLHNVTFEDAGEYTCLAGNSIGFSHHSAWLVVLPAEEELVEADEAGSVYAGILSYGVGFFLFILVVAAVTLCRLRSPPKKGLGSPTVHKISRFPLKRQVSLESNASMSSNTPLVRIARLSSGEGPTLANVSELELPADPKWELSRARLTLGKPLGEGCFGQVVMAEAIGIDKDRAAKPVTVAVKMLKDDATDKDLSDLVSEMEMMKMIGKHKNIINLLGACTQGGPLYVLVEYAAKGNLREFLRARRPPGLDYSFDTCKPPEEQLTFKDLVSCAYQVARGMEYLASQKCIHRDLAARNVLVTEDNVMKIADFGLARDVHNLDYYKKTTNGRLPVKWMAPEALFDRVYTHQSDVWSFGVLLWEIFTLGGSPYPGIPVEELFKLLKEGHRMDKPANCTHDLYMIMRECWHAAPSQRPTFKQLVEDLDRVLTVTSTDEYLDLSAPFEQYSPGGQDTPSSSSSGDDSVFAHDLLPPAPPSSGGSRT
Method in brief: (§1)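 IL3-independent Ba/F3 lines driven by FGFR1-BCR or FGFR3-BAIAP2L1 fusions, in RPMI1640/10% FBS. 9-dose 10-fold series from 30 μM, triplicate, 48 h at 37 °C; viability by CellTiter-Glo 2.0 ATP luminescence relative to DMSO control, IC50 from 4-parameter sigmoidal fit.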

FGFR1-BCR Ba/F3 cells = FGFR1-BCR Ba/F3 cells (Homo sapiens, UniProt P11362); assay: Ba/F3 cell viability assay (CellTiter-Glo 2.0), FGFR1-BCR Ba/F3; assay type: cell-based; settings: read-out: Ba/F3 Cells FGFR1 (IC50 nM), 48 hours, Cell Titer Glo 2.0
Chain of FGFR1-BCR Ba/F3 cells (P11362 22-822 limits assumed, change not shown): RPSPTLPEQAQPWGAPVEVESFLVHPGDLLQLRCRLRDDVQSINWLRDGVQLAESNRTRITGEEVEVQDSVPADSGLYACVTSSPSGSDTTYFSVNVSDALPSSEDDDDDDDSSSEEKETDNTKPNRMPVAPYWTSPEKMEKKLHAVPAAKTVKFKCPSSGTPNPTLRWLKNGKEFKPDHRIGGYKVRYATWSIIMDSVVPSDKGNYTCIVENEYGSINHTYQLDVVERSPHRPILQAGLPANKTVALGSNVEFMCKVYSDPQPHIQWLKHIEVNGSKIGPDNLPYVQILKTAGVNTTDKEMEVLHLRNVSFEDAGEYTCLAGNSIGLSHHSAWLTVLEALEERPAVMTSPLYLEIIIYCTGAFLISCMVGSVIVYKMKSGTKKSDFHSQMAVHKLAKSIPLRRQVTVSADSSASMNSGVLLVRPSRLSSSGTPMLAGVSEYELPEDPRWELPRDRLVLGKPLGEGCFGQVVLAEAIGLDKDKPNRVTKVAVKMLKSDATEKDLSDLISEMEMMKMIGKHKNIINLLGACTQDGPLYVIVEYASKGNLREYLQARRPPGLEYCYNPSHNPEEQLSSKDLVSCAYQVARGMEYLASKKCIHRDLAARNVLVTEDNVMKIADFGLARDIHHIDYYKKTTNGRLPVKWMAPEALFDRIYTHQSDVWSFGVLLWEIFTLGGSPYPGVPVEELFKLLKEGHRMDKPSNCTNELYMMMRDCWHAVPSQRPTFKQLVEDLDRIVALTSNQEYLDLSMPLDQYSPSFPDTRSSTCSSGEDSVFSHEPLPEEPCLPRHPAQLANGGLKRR
Method in brief: as §1

[2] = tested on: RT112/84 cells (FGFR3-fusion); assay: RT112/84 cancer cell line cell viability assay (CellTiter-Glo 2.0); assay type: cell-based; settings: Homo sapiens, 72 hours, Cell Titer Glo 2.0
From the text: (§2) Experimental Purpose: To detect the change of intracellular ATP by Cell Titer-Glo® and to evaluate the inhibitory effect of the compounds on cancer cell lines by determining the in vitro IC50 value of the compounds.
(§3) Cell Titer-Glo® 2.0 Luminescent cell viability assay reagent was purchased from Promega (Madison, WI). RT112/84 and KG-1 cell lines were purchased from American Type Culture Collection (Manassas, VA). UM-UC-14 cell line was purchased from Sigma (St. Louis, MO). RT112/84, UM-UC-14, and KG-1 cells were cultured in RPMI1640 media supplemented with 10% fetal bovine serum. Cultures were maintained at 37° C. in a humidified atmosphere of 5% C02 and 95% air.
(§4) Cell Viability Assay Procedure: Cells were plated in 96-well clear bottom/white plates (Corning #3903) at 10,000 cells/well in 100 μl of media, incubated overnight. The next day, test compound DMSO stock solutions were made at 10 mM and 2 μM final concentration. Compounds were then added to cells in a 9-dose, 10-fold dilution series starting at 30 μM with an HP 300e Digital Dispenser (each dose was applied in triplicate). DMSO was backfilled to each well up to 301 nL total volume of test compound+DMSO, and a total of 301 nL DMSO was added to a control/no test compound well in triplicate. The cells in cell culture plates were incubated with the compounds at 37° C. and 5% C02 for 72 hours. Then 50 μl of Cell Titer Glo 2.0 reagent was added to each well of the cell culture plates. The contents were covered from light and mixed on an orbital shaker at room temperature for 10 min. Luminescence was recorded by a Synergy H1 Microplate Reader (Biotek, Winooski, VT). Cells were assessed as a percentage of DMSO only treated control cells. Curves were plotted and IC50 values were calculated using the GraphPad Prism 8 program based on a sigmoidal dose-response equation (4 parameter).

[3] = tested on: KG-1 cells (FGFR1-fusion); assay: KG-1 cancer cell line cell viability assay (CellTiter-Glo 2.0); assay type: cell-based; settings: Homo sapiens, 72 hours, Cell Titer Glo 2.0
From the text: as §2, §3, §4

FGFR1 = FGFR1 (Homo sapiens (Human), UniProt P11362); assay: Kinase assay, binding constants (Kd), kinase-tagged T7 phage, qPCR
Chain of FGFR1 (P11362 22-822): as the sequence (P11362 22-822 limits assumed, change not shown) above
Method in brief: (§5)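 Competition binding: T7 phage-tagged kinase + biotin-ligand beads + compound (11 pts, 3-fold, 0.9% DMSO). Elution 30 min RT with free ligand; qPCR quantitation. Kd via Hill fit, slope −1.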

FGFR2 = FGFR2 (Homo sapiens (Human), UniProt P21802); assay: as above
Chain of FGFR2 (P21802 22-821): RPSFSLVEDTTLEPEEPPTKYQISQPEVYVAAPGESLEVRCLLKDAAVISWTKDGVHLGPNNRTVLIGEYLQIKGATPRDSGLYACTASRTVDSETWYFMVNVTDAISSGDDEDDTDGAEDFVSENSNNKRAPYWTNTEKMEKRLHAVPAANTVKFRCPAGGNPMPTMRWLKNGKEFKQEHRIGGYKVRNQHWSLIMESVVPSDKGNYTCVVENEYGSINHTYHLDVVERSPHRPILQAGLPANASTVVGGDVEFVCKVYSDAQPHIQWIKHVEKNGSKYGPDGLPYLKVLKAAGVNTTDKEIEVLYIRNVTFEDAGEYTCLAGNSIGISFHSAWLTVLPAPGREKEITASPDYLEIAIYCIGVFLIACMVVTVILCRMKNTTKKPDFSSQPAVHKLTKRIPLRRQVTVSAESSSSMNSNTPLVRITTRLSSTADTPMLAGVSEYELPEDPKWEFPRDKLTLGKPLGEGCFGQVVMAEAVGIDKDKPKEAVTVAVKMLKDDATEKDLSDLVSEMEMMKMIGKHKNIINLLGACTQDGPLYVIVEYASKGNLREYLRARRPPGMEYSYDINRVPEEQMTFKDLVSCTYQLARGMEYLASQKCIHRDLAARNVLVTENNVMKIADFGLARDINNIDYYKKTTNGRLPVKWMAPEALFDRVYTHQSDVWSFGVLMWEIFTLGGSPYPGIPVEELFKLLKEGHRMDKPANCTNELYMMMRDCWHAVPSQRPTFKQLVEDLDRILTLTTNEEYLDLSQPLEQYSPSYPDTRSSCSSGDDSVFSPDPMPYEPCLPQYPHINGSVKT
Method in brief: as §5

FGFR3 = FGFR3 (Homo sapiens (Human), UniProt P22607); assay: as above
Chain of FGFR3 (P22607 23-806): as the sequence (P22607 23-806 limits assumed, change not shown) above
Method in brief: as §5

FGFR3 (V555M) = FGFR3 (V555M) (Homo sapiens (Human), UniProt P22607, V555M); assay: as above; settings: V555M mutant
Chain of FGFR3 (V555M) (P22607 23-806 V555M): as the sequence (P22607 23-806 limits assumed, change not shown) above, with V533M counted along it
Method in brief: as §5

FGFR4 = FGFR4 (Homo sapiens (Human), UniProt P22455); assay: as above
Chain of FGFR4 (P22455 22-802): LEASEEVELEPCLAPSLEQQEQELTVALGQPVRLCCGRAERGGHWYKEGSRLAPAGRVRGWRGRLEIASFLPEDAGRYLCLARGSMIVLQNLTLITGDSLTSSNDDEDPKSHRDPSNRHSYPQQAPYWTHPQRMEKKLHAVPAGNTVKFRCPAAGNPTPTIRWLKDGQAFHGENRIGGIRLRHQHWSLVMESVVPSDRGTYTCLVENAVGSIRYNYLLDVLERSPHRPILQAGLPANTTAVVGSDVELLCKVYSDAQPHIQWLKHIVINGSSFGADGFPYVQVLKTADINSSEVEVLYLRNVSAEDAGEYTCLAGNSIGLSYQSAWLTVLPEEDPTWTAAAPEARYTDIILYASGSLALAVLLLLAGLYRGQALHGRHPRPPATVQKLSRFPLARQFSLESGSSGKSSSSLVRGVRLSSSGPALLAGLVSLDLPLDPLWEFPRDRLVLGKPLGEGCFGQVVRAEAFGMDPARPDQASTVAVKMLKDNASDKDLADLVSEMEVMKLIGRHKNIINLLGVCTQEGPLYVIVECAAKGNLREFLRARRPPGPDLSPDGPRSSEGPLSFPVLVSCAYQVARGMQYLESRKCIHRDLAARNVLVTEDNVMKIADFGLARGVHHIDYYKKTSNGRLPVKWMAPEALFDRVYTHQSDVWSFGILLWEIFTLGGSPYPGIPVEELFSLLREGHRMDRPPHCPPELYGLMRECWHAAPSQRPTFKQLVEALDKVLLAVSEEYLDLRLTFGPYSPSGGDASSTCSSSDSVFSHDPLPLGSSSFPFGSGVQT
Method in brief: as §5

Compound	Ba/F3 FGFR1/FGFR3 Selectivity [1]	IC50 [1]	IC50 (FGFR1-BCR Ba/F3 cells)	IC50 [2]	IC50 [3]	Kd (FGFR1)	Kd (FGFR2)	Kd (FGFR3)	Kd (FGFR3 (V555M))	Kd (FGFR4)
C[C@@H](Oc1ccc2[nH]nc(-c3ccc(N4CCC5(CCC(=O)N5)CC4)nc3)c2c1)c1c(Cl)cncc1Cl [Example 29, 8-[5-[5-[(1R)-1-(3,5-dichloro-4-pyridyl)ethoxy]-1H-indazol-3-yl]-2-pyridyl]-1,8-diazaspiro[4.5]decan-2-one]	19	1 to 20 nM	100 to 300 nM	1 to 20 nM	20 to 100 nM	1 to 20 nM	1 to 20 nM	1 to 20 nM	1 to 20 nM	1 to 20 nM
C[C@@H](Oc1ccc2[nH]nc(-c3ccc(N4CCNC(=O)CC4)nc3)c2c1)c1c(Cl)cncc1Cl [Example 30, 1-[5-[5-[(1R)-1-(3,5-dichloro-4-pyridyl)ethoxy]-1H-indazol-3-yl]-2-pyridyl]-1,4-diazepan-5-one]	18	1 to 20 nM	100 to 300 nM	1 to 20 nM	20 to 100 nM	1 to 20 nM	1 to 20 nM	1 to 20 nM	1 to 20 nM	1 to 20 nM
CC(C)N1CC2(CN(c3ccc(-c4n[nH]c5ccc(O[C@H](C)c6c(Cl)cncc6Cl)cc45)cn3)C2)C1 [Example 31, 5-[(1R)-1-(3,5-dichloro-4-pyridyl)ethoxy]-3-[6-(2-isopropyl-2,6-diazaspiro[3.3]heptan-6-yl)-3-pyridyl]-1H-indazole]	–	–	–	1 to 20 nM	20 to 100 nM	1 to 20 nM	1 to 20 nM	1 to 20 nM	1 to 20 nM	1 to 20 nM
C[C@@H](Oc1ccc2[nH]nc(-c3cnc(N4CCC5(CCC(=O)N5)CC4)c(F)c3)c2c1)c1c(Cl)cncc1Cl [Example 42, 8-[5-[5-[(1R)-1-(3,5-dichloro-4-pyridyl)ethoxy]-1H-indazol-3-yl]-3-fluoro-2-pyridyl]-1,8-diazaspiro[4.5]decan-2-one]	17	1 to 20 nM	100 to 300 nM	1 to 20 nM	20 to 100 nM	1 to 20 nM	20 to 100 nM	1 to 20 nM	1 to 20 nM	1 to 20 nM
C[C@@H](Oc1ccc2[nH]nc(-c3cnc(N4CCC5(CC4)CC(=O)NC5=O)nc3)c2c1)c1c(Cl)cncc1Cl [Example 50, 8-[5-[5-[(1R)-1-(3,5-dichloro-4-pyridyl)ethoxy]-1H-indazol-3-yl]pyrimidin-2-yl]-2,8-diazaspiro-[4,5]decane-1,3-dione]	16	1 to 20 nM	100 to 300 nM	20 to 100 nM	100 to 300 nM	20 to 100 nM	20 to 100 nM	1 to 20 nM	1 to 20 nM	1 to 20 nM
C[C@@H](Oc1ccc2[nH]nc(-c3cnn(C4CCN(C)CC4)c3)c2c1)c1c(Cl)cncc1Cl [Example 65, 5-[(1R)-1-(3,5-dichloro-4-pyridyl)ethoxy]-3-[1-(1-methyl-4-piperidyl)pyrazol-4-yl]-1H-indazole]	–	1 to 20 nM	20 to 100 nM	1 to 20 nM	20 to 100 nM	1 to 20 nM	1 to 20 nM	1 to 20 nM	1 to 20 nM	1 to 20 nM
C[C@@H](Oc1ccc2[nH]nc(-c3ccc(N4CC5(CCN(S(C)(=O)=O)CC5)C4)nc3)c2c1)c1c(Cl)cncc1Cl [Example 111, 5-[(1R)-1-(3,5-dichloro-4-pyridyl)ethoxy]-3-[6-(7-methylsulfonyl-2,7-diazaspiro[3.5]nonan-2-yl)-3-pyridyl]-1H-indazole]	15	1 to 20 nM	100 to 300 nM	1 to 20 nM	–	20 to 100 nM	20 to 100 nM	1 to 20 nM	1 to 20 nM	1 to 20 nM
C[C@@H](Oc1ccc2[nH]nc(-c3ccc(N4CC5(C4)CS(=O)(=O)C5)nc3)c2c1)c1c(Cl)cncc1Cl [Example 112, 6-[5-[5-[(1R)-1-(3,5-dichloro-4-pyridyl)ethoxy]-1H-indazol-3-yl]-2-pyridyl]-2λ^6-thia-6-azaspiro[3.3]heptane 2,2-dioxide]	12	1 to 20 nM	100 to 300 nM	1 to 20 nM	–	1 to 20 nM	20 to 100 nM	1 to 20 nM	1 to 20 nM	1 to 20 nM
C[C@@H](Oc1ccc2[nH]nc(-c3ccc(N4CC5(CCS(=O)(=O)CC5)C4)nc3)c2c1)c1c(Cl)cncc1Cl [Example 113, 2-[5-[5-[(1R)-1-(3,5-dichloro-4-pyridyl)ethoxy]-1H-indazol-3-yl]-2-pyridyl]-7λ^6-thia-2-azaspiro[3.5]nonane 7,7-dioxide]	11	1 to 20 nM	20 to 100 nM	1 to 20 nM	–	1 to 20 nM	1 to 20 nM	1 to 20 nM	1 to 20 nM	1 to 20 nM
C[C@@H](Oc1ccc2[nH]nc(-c3ccc(N4CC5(CCN(S(C)(=O)=O)C5)C4)nc3)c2c1)c1c(Cl)cncc1Cl [Example 163, 5-[(1R)-1-(3,5-dichloro-4-pyridyl)ethoxy]-3-[6-(7-methylsulfonyl-2,7-diazaspiro[3.4]octan-2-yl)-3-pyridyl]-1H-indazole]	17	1 to 20 nM	20 to 100 nM	–	–	1 to 20 nM	1 to 20 nM	1 to 20 nM	1 to 20 nM	1 to 20 nM
COC(=O)N1CCCC2(C1)CN(c1ccc(-c3n[nH]c4ccc(O[C@H](C)c5c(Cl)cncc5Cl)cc34)cn1)C2 [Example 165, methyl 2-[5-[5-[(1R)-1-(3,5-dichloro-4-pyridyl)ethoxy]-1H-indazol-3-yl]-2-pyridyl]-2,8-diazaspiro[3.5]nonane-8-carboxylate]	16	1 to 20 nM	100 to 300 nM	–	–	20 to 100 nM	1 to 20 nM	1 to 20 nM	1 to 20 nM	1 to 20 nM
C[C@@H](Oc1ccc2[nH]nc(-c3cnn(C4CCNCC4)c3)c2c1)c1cc(F)cc(F)c1 [Example 166, 5-[(1R)-1-(3,5-difluorophenyl)ethoxy]-3-[1-(4-piperidyl)pyrazol-4-yl]-1H-indazole]	6	100 to 300 nM	> 300 nM	–	–	20 to 100 nM	1 to 20 nM	1 to 20 nM	1 to 20 nM	> 300 nM
C[C@@H](Oc1ccc2[nH]nc(-c3cnn(C4CCN(C5COC5)CC4)c3)c2c1)c1cc(F)cc(F)c1 [Example 168, 5-[(1R)-1-(3,5-difluorophenyl)ethoxy]-3-[1-[1-(oxetan-3-yl)-4-piperidyl]pyrazol-4-yl]-1H-indazole]	8	20 to 100 nM	> 300 nM	–	–	100 to 300 nM	20 to 100 nM	1 to 20 nM	1 to 20 nM	> 300 nM
C[C@@H](Oc1ccc2[nH]nc(-c3ccc(N4CC5(C4)CN(S(C)(=O)=O)C5)nc3)c2c1)c1c(Cl)cccc1Cl [Example 170, 5-[(1R)-1-(2,6-dichlorophenyl)ethoxy]-3-[6-(2-methylsulfonyl-2,6-diazaspiro[3.3]heptan-6-yl)-3-pyridyl]-1H-indazole]	14	20 to 100 nM	> 300 nM	–	–	100 to 300 nM	20 to 100 nM	1 to 20 nM	1 to 20 nM	100 to 300 nM
